Patent publication US4091006A, “Esters of 3-hydroxyindone compounds” (priority 1975, dated 1978)

What was measured:
[1] = tested on: adults and nymphal stages of the two-spotted mite; test: Mite Foliage Spray Test; assay type: in vivo, Tetranychus urticae (Koch); set-up: key: 1: no mortality; 3: an approximately 50% mortality; 5: 100% mortality; conditions: 4 days
Source text: (§1) The test procedures were as follows:
(§2) Compositions were rated on the basis of percent kill with a rating of 1 indicating no mortality; 3 signifying an approximately 50% mortality and 5 indicating 100% mortality at the indicated dosage.

[2] = tested on: egg of the two-spotted mite; test: Mite Ovicide Test; assay type: in vivo, Tetranychus urticae (Koch); set-up: key to Mite Ova rating: 1: no mortality; 3: an approximately 50% mortality; 5: 100% mortality; conditions: spray on eggs, 4 days
Source text: as §1
The plants were allowed to dry thoroughly.
as §2

[3] = tested on: Perennial rye grass, crabgrass, red root pigweed, mustard; test: Preliminary Herbicide Seed Germination Test; conditions: each rated 1 (no injury) to 5 (no seedlings emerged)
[4] = rating/maximum 20: 100 ppm only, four species
[5] = rating/maximum 15: 100 ppm only, crabgrass omitted
[6] = rating/maximum 40: 100 and 1000 ppm, four species, 10-12 days

## CCCC(C)C(=O)OC1=C(c2ccc(C)cc2C)C(=O)c2ccccc21 (stereo not drawn) [2-(2',4'-Dimethylphenyl)-3-(2-methylpentanoyloxy)indone]
[1]
  Mite Adult rating: 3 (an approximately 50% mortality)
[2]
  Mite Ova rating: 5 (100% mortality)
[3]; [4]
  Herbicide (total preemergence rating): 14/20

## CCCCCCCCCCCC(=O)OC1=C(c2ccc(C)cc2C)C(=O)c2ccccc21 [2-(2',4'-Dimethylphenyl)-3-(lauroyloxy)indone]
[1]
  Mite Adult rating: 5 (100% mortality)
[2]
  Mite Ova rating: 5 (100% mortality)
[3]; [4]
  Herbicide (total preemergence rating): 14/20

## CCCCCCCCCCCCCCCCCC(=O)OC1=C(c2ccc(C)cc2C)C(=O)c2ccccc21 [2-(2',4'-Dimethylphenyl)-3-(stearoyloxy)indone]
[1]
  Mite Adult rating: 3 (an approximately 50% mortality)
[2]
  Mite Ova rating: 5 (100% mortality)
[3]; [4]
  Herbicide (total preemergence rating): 14/20

## CCC(CC)C(=O)OC1=C(c2cc(C)ccc2C)C(=O)c2ccccc21 [2-(2',5'-Dimethylphenyl)-3-(2-ethylbutanoyloxy)indone]
[1]
  Mite Adult rating: 3 (an approximately 50% mortality)
[2]
  Mite Ova rating: 5 (100% mortality)
[3]; [4]
  Herbicide (total preemergence rating): 4/20

## CCCCCCCCCCCCC(=O)OC1=C(c2cc(C)ccc2C)C(=O)c2ccccc21 [2-(2',5'-Dimethylphenyl)-3-(tridecanoyloxy)indone]
[1]
  Mite Adult rating: 1
[2]
  Mite Ova rating: 5 (100% mortality)
[3]; [4]
  Herbicide (total preemergence rating): 4/20

## CCc1cccc(CC)c1C1=C(OC(=O)C(C)(C)C)c2ccccc2C1=O [2-(2',6'-Diethylphenyl)-3-(pivaloyloxy)indone]
[1]
  Mite Adult rating: 5 (100% mortality)
[2]
  Mite Ova rating: 5 (100% mortality)
[3]; [5]
  Herbicide (total preemergence rating): 12/15

## COc1cc(C)c(C2=C(OC(=O)C(C)(C)C)c3ccccc3C2=O)c(C)c1 [2-(2',6'-Dimethyl-4'-methoxyphenyl)-3-(pivaloyloxy)indone]
[1]
  Mite Adult rating: 3 (an approximately 50% mortality)
[2]
  Mite Ova rating: 3 (an approximately 50% mortality)
[3]; [6]
  Herbicide (total preemergence rating): 24/40

## Cc1cc(C(C)(C)C)cc(C)c1C1=C(OC(=O)C(C)(C)C)c2ccccc2C1=O [2-(2',6'-Dimethyl-4'-t-butylphenyl)-3-(pivaloyloxy)indone]
[1]
  Mite Adult rating: 1
[2]
  Mite Ova rating: 1
[3]; [6]
  Herbicide (total preemergence rating): 9/40

## Cc1cccc(C)c1C1=C(OC(=O)C(C)(C)C)c2ccccc2C1=O [2-(2',6'-Dimethylphenyl)-3-(pivaloyloxy)indone]
[1]
  Mite Adult rating: 5 (100% mortality)
[2]
  Mite Ova rating: 5 (100% mortality)
[3]; [6]
  Herbicide (total preemergence rating): 31/40

## CC(C)(C)C(=O)OC1=C(c2ccccc2Br)C(=O)c2ccccc21 [2-(2'-Bromophenyl)-3-(pivaloyloxy)indone]
[1]
  Mite Adult rating: 5 (100% mortality)
[2]
  Mite Ova rating: 5 (100% mortality)
[3]; [6]
  Herbicide (total preemergence rating): 14/40

## Cc1cccc(Cl)c1C1=C(OC(=O)C(C)(C)C)c2ccccc2C1=O [2-(2'-Chloro-6'-methylphenyl)-3-(pivaloyloxy)indone]
[1]
  Mite Adult rating: 5 (100% mortality)
[2]
  Mite Ova rating: 5 (100% mortality)
[3]; [6]
  Herbicide (total preemergence rating): 33/40

## CCCC(C)C(=O)OC1=C(c2ccccc2Cl)C(=O)c2ccccc21 (stereo not drawn) [2-(2'-Chlorophenyl)-3-(2-methylpentanoyloxy)indone]
[1]
  Mite Adult rating: 5 (100% mortality)
[2]
  Mite Ova rating: 5 (100% mortality)
[3]; [4]
  Herbicide (total preemergence rating): 4/20

## CC(C)(C)C(=O)OC1=C(c2ccccc2Cl)C(=O)c2ccccc21 [2-(2'-Chlorophenyl)-3-(pivaloyloxy)indone]
[1]
  Mite Adult rating: 5 (100% mortality)
[2]
  Mite Ova rating: 5 (100% mortality)
[3]; [6]
  Herbicide (total preemergence rating): 18/40

## CCCCCCCCCCCCCCCCCC(=O)OC1=C(c2ccccc2Cl)C(=O)c2ccccc21 [2-(2'-Chlorophenyl)-3-(stearoyloxy)indone]
[1]
  Mite Adult rating: 1
[2]
  Mite Ova rating: 5 (100% mortality)
[3]; [4]
  Herbicide (total preemergence rating): 4/20

## CCc1cccc(C)c1C1=C(OC(=O)C(C)(C)C)c2ccccc2C1=O [2-(2'-Ethyl-6'-methylphenyl)-3-(pivaloyloxy)indone]
[1]
  Mite Adult rating: 5 (100% mortality)
[2]
  Mite Ova rating: 5 (100% mortality)
[3]; [5]
  Herbicide (total preemergence rating): 14/15

## CCc1ccccc1C1=C(OC(=O)C(C)(C)C)c2ccccc2C1=O [2-(2'-Ethylphenyl)-3-pivaloyloxyindone]
[1]
  Mite Adult rating: 1
[2]
  Mite Ova rating: 1
[3]; [4]
  Herbicide (total preemergence rating): 4/20

## COc1ccccc1C1=C(OC(=O)C(C)(C)C)c2ccccc2C1=O [2-(2'-Methoxyphenyl)-3-(pivaloyloxy)indone]
[1]
  Mite Adult rating: 1
[2]
  Mite Ova rating: 1
[3]; [6]
  Herbicide (total preemergence rating): 8/40

## CCCCCCCCCCCCCCCC(=O)OC1=C(c2ccccc2C)C(=O)c2ccccc21 [2-(2'-Methylphenyl)-3-(palmitoyloxy)indone]
[1]
  Mite Adult rating: 3 (an approximately 50% mortality)
[2]
  Mite Ova rating: 5 (100% mortality)
[3]; [4]
  Herbicide (total preemergence rating): 4/20

## Cc1ccccc1C1=C(OC(=O)C(C)(C)C)c2ccccc2C1=O [2-(2'-Methylphenyl)-3-(pivaloyloxy)indone]
[1]
  Mite Adult rating: 5 (100% mortality)
[2]
  Mite Ova rating: 5 (100% mortality)
[3]; [6]
  Herbicide (total preemergence rating): 20/40

## CC(C)(C)C(=O)OC1=C(c2ccccc2C(F)(F)F)C(=O)c2ccccc21 [2-(2'-Trifluoromethylphenyl)-3-pivaloyloxy indone]
[1]
  Mite Adult rating: 1
[2]
  Mite Ova rating: 1
[3]; [4]
  Herbicide (total preemergence rating): 4/20

## CC(C)(C)C(=O)OC1=C(c2ccc(Cl)cc2)C(=O)c2ccccc21 [2-(4'-Chlorophenyl)-3-(pivaloyloxy)indone]
[1]
  Mite Adult rating: 1
[2]
  Mite Ova rating: 1
[3]; [4]
  Herbicide (total preemergence rating): 4/20

## CCCCCCCCCCCCCCCC(=O)OC1=C(c2ccc(C(C)C)cc2)C(=O)c2ccccc21 [2-(4'-isopropylphenyl)-3-(palmitoyloxy)indone]
[1]
  Mite Adult rating: 1
[2]
  Mite Ova rating: 1
[3]; [4]
  Herbicide (total preemergence rating): 4/20

## CC(C)c1ccc(C2=C(OC(=O)C(C)(C)C)c3ccccc3C2=O)cc1 [2-(4'-isopropylphenyl)-3-(pivaloyloxy)indone]
[1]
  Mite Adult rating: 1
[2]
  Mite Ova rating: 1
[3]; [4]
  Herbicide (total preemergence rating): 4/20

## CC(=O)OC1=C(c2ccccc2)C(=O)c2ccccc21 [2-Phenyl-3-(acetoxy)indone]
[1]
  Mite Adult rating: 1
[2]
  Mite Ova rating: 1
[3]; [6]
  Herbicide (total preemergence rating): 8/40

## O=C(OC1=C(c2ccccc2)C(=O)c2ccccc21)c1ccccc1 [2-Phenyl-3-(benzoyloxy)indone]
[1]
  Mite Adult rating: 1
[2]
  Mite Ova rating: 1
[3]; [4]
  Herbicide (total preemergence rating): 4/20

## CC(C)(C)C(=O)OC1=C(c2ccccc2)C(=O)c2ccccc21 [2-Phenyl-3-(pivaloyloxy)indone]
[1]
  Mite Adult rating: 1
[2]
  Mite Ova rating: 1
[3]; [6]
  Herbicide (total preemergence rating): 8/40

## CCCCCCCCCCCCCCCCCC(=O)OC1=C(c2ccccc2)C(=O)c2ccccc21 [2-Phenyl-3-(stearoyloxy)indone]
[1]
  Mite Adult rating: 1
[2]
  Mite Ova rating: 1
[3]; [4]
  Herbicide (total preemergence rating): 4/20

## Cc1cc(C)c(C2=C(OC(=O)c3c(Cl)ccc(Cl)c3Cl)c3ccccc3C2=O)c(C)c1 [3-(2,3,6-Trichlorobenzoyloxy)-2-(2',4',6'-trimethylphenyl)indone]
[1]
  Mite Adult rating: 1
[2]
  Mite Ova rating: 3 (an approximately 50% mortality)
[3]; [6]
  Herbicide (total preemergence rating): 21/40

## O=C1C(c2c(Cl)cccc2Cl)=C(OC(=O)c2c(Cl)ccc(Cl)c2Cl)c2ccccc21 [3-(2,3,6-Trichlorobenzoyloxy)-2-(2',6'-dichlorophenyl)indone]
[1]
  Mite Adult rating: 5 (100% mortality)
[2]
  Mite Ova rating: 5 (100% mortality)
[3]; [6]
  Herbicide (total preemergence rating): 20/40

## Cc1cc(C)c(C(=O)OC2=C(c3c(C)cc(C)cc3C)C(=O)c3ccccc32)c(C)c1 [3-(2,4,6-Trimethylbenzoyloxy)-2-(2',4',6'-trimethylphenyl)indone]
[1]
  Mite Adult rating: 1
[2]
  Mite Ova rating: 1
[3]; [5]
  Herbicide (total preemergence rating): 10/15

## Cc1cc(C)c(C(=O)OC2=C(c3c(Cl)cccc3Cl)C(=O)c3ccccc32)c(C)c1 [3-(2,4,6-Trimethylbenzoyloxy)-2-(2',6'-dichlorophenyl)indone]
[1]
  Mite Adult rating: 1
[2]
  Mite Ova rating: 1
[3]; [5]
  Herbicide (total preemergence rating): 6/15
